Measured values published in patent US5216156A, “Non-migrating 1-hydrocarbyloxy-2,2,6,6-tetramethylpiperidine 1,3,5-triazine derivatives” (Ciba-Geigy Corporation, priority 1992, dated 1993).

How the values were obtained:
[1] = Hindered amine basicity (pKa); assay type: physicochemical; details: Table 1; N-substituted derivatives of 4-hydroxy-2,2,6,6-tetramethylpiperidine
Source text: There are clear advantages in using the hindered amine compounds having 1-hydrocarbyloxy substitution. In certain polymer systems, there is a definite advantage in using a less basic stabilizer. For example, the cure of acid-catalyzed thermoset melamine crosslinked automotive coatings systems can be severely retarded by an interaction between the acid catalyst and a basic hindered amine stabilizer.

[2] = Extraction of stabilizer from polyester polyurethane refinish enamel film by refluxing toluene, GC (Example 75); details: 2% by weight on resin solids, film baked 30 minutes at 60° C., stored one month, refluxing toluene one hour
Protocol: A polyester polyurethane refinish enamel is prepared from a polyester resin (DESMOPHEN® 670A-80, Mobay) and a polyurethane resin (DESMODUR® N-75, Mobay) in a ratio of 1.0:1.1 equivalents, with 1% DABCO® T-12 […] as catalyst. The enamel is stabilized with 2% by weight, based on resin solids, of various hindered amine stabilizers. The stabilized enamel is spray applied to a thickness of 1.8-2.0 mils (0.0457-0.0508 mm) onto glass plates and baked for 30 minutes at 140° F. (60° C.). After storage for one month in an air-conditioned room, the films are removed from the glass plates and placed in a round-bottomed flask and then extracted with refluxing toluene for one hour. The films are then removed and the toluene is analyzed for any stabilizer extracted by gas chromatography.
If the stabilizer is chemically bonded to the polymer film, little if any of the stabilizer is extracted by the refluxing toluene.

[3] = Extraction of stabilizer from high solids thermoset acrylic enamel film by refluxing toluene, GC (Example 78); details: refluxing toluene one hour; for Percent Stabilizer Extracted: 1% by weight on resin solids, baked 30 minutes at 121° C., stored one week, GC; for extraction of stabilizer from the stabilized enamel: in words, thermoset acrylic enamel
Source text: A model high solids thermoset acrylic enamel based on a binder of 60% of a polymer comprising monomers such as 2-hydroxyethyl acrylate, butyl acrylate, butyl methacrylate, styrene and acrylic acid, and 40% of a melamine resin with an acid catalyst such as p-toluenesulfonic acid is formulated and stabilized with 1% by weight, based on resin solids, of a variety of hindered amine stabilizers.
This enamel is spray applied to a thickness of 1.8-2.0 mils (0.0457-0.0508 mm) onto glass plates and baked for 30 minutes at 250° F. (121° C.). After storage for one week in an air-conditioned room, the films are removed from the glass plates and placed in a round-bottomedflask and extracted with refluxing toluene for one hour. After one hour, the films are removed and the toluene extract is analyzed for extracted stabilizer by gas chromatography.

| pKa [1] | Percent Stabilizer Extracted [2] [%] | Percent Stabilizer Extracted [3] [%] | SMILES | extraction of stabilizer from the stabilized enamel [3] |
| --- | --- | --- | --- | --- |
| – | 0 | 0 | CCCCCCCCON1C(C)(C)CC(N(CCCC)c2nc(NCCO)nc(N(CCCC)C3CC(C)(C)N(OCCCCCCCC)C(C)(C)C3)n2)CC1(C)C [Example 2, 2-[(2-Hydroxyethyl)amino]-4,6-bis[N-(1-octyloxy-2,2,6,6-tetramethylpiperidin-4-yl)butylamino]-1,3,5-triazine] | resist extraction from the stabilized enamel |
| – | 0 | 0 | CCCCN(c1nc(NCCO)nc(N(CCCC)C2CC(C)(C)N(OC3CCCCC3)C(C)(C)C2)n1)C1CC(C)(C)N(OC2CCCCC2)C(C)(C)C1 [Example 1, 2-[(2-Hydroxyethyl)amino]-4,6-bis[N-(1-cyclohexyloxy-2,2,6,6-tetramethylpiperidin-4-yl)-butylamino]-1,3,5-triazine] | resist extraction from the stabilized enamel |
| – | 100 | 100 | CCCCCCCCON1C(C)(C)CC(OC(=O)CCCCCCCCC(=O)OC2CC(C)(C)N(OCCCCCCCC)C(C)(C)C2)CC1(C)C [HA 1, bis(1-octyloxy-2,2,6,6-tetramethylpiperidin-4-yl) sebacate, reference compound] | – |
| – | 23 | – | CCCCN(c1nc(NCCCCCC(=O)O)nc(N(CCCC)C2CC(C)(C)N(OC3CCCCC3)C(C)(C)C2)n1)C1CC(C)(C)N(OC2CCCCC2)C(C)(C)C1 [Example 15, N-{4,6-Bis[(1-cyclohexyloxy-2,2,6,6-tetramethylpiperidin-4-yl)butylamino]-1,3,5-triazin-2-yl}-6-aminohexanoic acid] | – |
| – | 21 | – | CCCCCCCCON1C(C)(C)CC(N(CCCC)c2nc(NCCCCCC(=O)O)nc(N(CCCC)C3CC(C)(C)N(OCCCCCCCC)C(C)(C)C3)n2)CC1(C)C [Example 16, N-{4,6-Bis[(1-octyloxy-2,2,6,6-tetramethylpiperidin-4-yl)butylamino]-1,3,5-triazin-2-yl}-6-aminohexanoic acid] | – |

Further lines, the molecule ahead of its results:

| SMILES | pKa [1] | Percent Stabilizer Extracted [2] [%] | Percent Stabilizer Extracted [3] [%] | extraction of stabilizer from the stabilized enamel [3] |
| --- | --- | --- | --- | --- |
| CON1C(C)(C)CC(O)CC1(C)C [N--OMe] | 4.8 | – | – | – |
| CN1C(C)(C)CC(O)CC1(C)C [N--Me] | 10.0 | – | – | – |
| CC1(C)CC(O)CC(C)(C)N1 [N--H, 4-hydroxy-2,2,6,6-tetramethylpiperidine] | 10.0 | – | – | – |
